Data reported in PubChem BioAssay AID1963842 (Molecular Pharmacology Branch, DTP, NCI, 2024).

System: 677734-321-R-J1-PDC complex spheroid viability
Test: Anticancer human tumor 677734-321-R-J1-PDC patient-derived soft tissue sarcoma cell line growth inhibition [POLQ]
Conditions: for IC50: curve of first compound; for viability, T/C: stronger effect = lower value; active = viability on the fitted dose curve at most 10% of control; inactive = the rest
In short: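 Complex spheroid viability model combining PDC tumour cells with endothelial (HUVEC) and MSC stromal cells. Novobiocin, ART-558 or RP6685 were tested singly and in combination with standard and investigational anticancer drugs. Each was titrated in half-log steps from near clinical Cmax, or from 10 microM where Cmax was unknown.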

[1] = second compound 0.0316 µM, first compound 0.00316 µM
[2] = second compound 0.0316 µM, first compound 0.01 µM
[3] = second compound 0.0316 µM, first compound 0.0316 µM
[4] = second compound 0.0316 µM, first compound 0.1 µM
[5] = second compound 0.0316 µM, first compound 0.316 µM
[6] = second compound 0.0316 µM, first compound 1 µM
[7] = second compound 0.1 µM, first compound 0.00316 µM
[8] = second compound 0.1 µM, first compound 0.01 µM
[9] = second compound 0.1 µM, first compound 0.0316 µM
[10] = second compound 0.1 µM, first compound 0.1 µM
[11] = second compound 0.1 µM, first compound 0.316 µM
[12] = second compound 0.1 µM, first compound 1 µM
[13] = second compound 0.316 µM, first compound 0.00316 µM
[14] = second compound 0.316 µM, first compound 0.01 µM
[15] = second compound 0.316 µM, first compound 0.0316 µM
[16] = second compound 0.316 µM, first compound 0.1 µM
[17] = second compound 0.316 µM, first compound 0.316 µM
[18] = second compound 0.316 µM, first compound 1 µM
[19] = second compound 1 µM, first compound 0.00316 µM
[20] = second compound 1 µM, first compound 0.01 µM
[21] = second compound 1 µM, first compound 0.0316 µM
[22] = second compound 1 µM, first compound 0.1 µM
[23] = second compound 1 µM, first compound 0.316 µM
[24] = second compound 1 µM, first compound 1 µM
[25] = second compound 3.16 µM, first compound 0.00316 µM
[26] = second compound 3.16 µM, first compound 0.01 µM
[27] = second compound 3.16 µM, first compound 0.0316 µM
[28] = second compound 3.16 µM, first compound 0.1 µM
[29] = second compound 3.16 µM, first compound 0.316 µM
[30] = second compound 3.16 µM, first compound 1 µM
[31] = second compound 10 µM, first compound 0.00316 µM
[32] = second compound 10 µM, first compound 0.01 µM
[33] = second compound 10 µM, first compound 0.0316 µM
[34] = second compound 10 µM, first compound 0.1 µM
[35] = second compound 10 µM, first compound 0.316 µM
[36] = second compound 10 µM, first compound 1 µM
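Note: spheroids exposed to compounds for one week.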
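Throughout, for viability, T/C: 100% = vehicle DMSO treated spheroids.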

C=CCn1c(=O)c2cnc(Nc3ccc(N4CCN(C)CC4)cc3)nc2n1-c1cccc(C(C)(C)O)n1 + COC1C(OC(N)=O)C(O)C(Oc2ccc3c(O)c(NC(=O)c4ccc(O)c(CC=C(C)C)c4)c(=O)oc3c2C)OC1(C)C
> 1000 nM: IC50 (second compound 0.0316 µM) | IC50 (second compound 0.1 µM) | IC50 (second compound 0.316 µM) | IC50 (second compound 1 µM) | IC50 (second compound 3.16 µM) | IC50 (second compound 10 µM)
inactive: viability, T/C [1] 110% | viability, T/C [2] 93.9% | viability, T/C [3] 101% | viability, T/C [4] 102% | viability, T/C [5] 104% | viability, T/C [6] 61.6% | viability, T/C [7] 105% | viability, T/C [8] 106% | viability, T/C [9] 101% | viability, T/C [10] 99.3% | viability, T/C [11] 104% | viability, T/C [12] 72.4% | viability, T/C [13] 119% | viability, T/C [14] 105% | viability, T/C [15] 103% | viability, T/C [16] 111% | viability, T/C [17] 111% | viability, T/C [18] 70.2% | viability, T/C [19] 108% | viability, T/C [20] 102% | viability, T/C [21] 104% | viability, T/C [22] 112% | viability, T/C [23] 107% | viability, T/C [24] 66.3% | viability, T/C [25] 101% | viability, T/C [26] 103% | viability, T/C [27] 104% | viability, T/C [28] 115% | viability, T/C [29] 106% | viability, T/C [30] 69.8% | viability, T/C [31] 109% | viability, T/C [32] 110% | viability, T/C [33] 102% | viability, T/C [34] 106% | viability, T/C [35] 105% | viability, T/C [36] 76%

CC[C@@]1(O)C(=O)OCc2c1cc1n(c2=O)Cc2cc3c(CN(C)C)c(O)ccc3nc2-1 + COC1C(OC(N)=O)C(O)C(Oc2ccc3c(O)c(NC(=O)c4ccc(O)c(CC=C(C)C)c4)c(=O)oc3c2C)OC1(C)C
28.8 nM: IC50 (second compound 10 µM)
23.6 nM: IC50 (second compound 1 µM)
26.4 nM: IC50 (second compound 0.316 µM)
24.6 nM: IC50 (second compound 0.1 µM)
25.2 nM: IC50 (second compound 3.16 µM)
25.7 nM: IC50 (second compound 0.0316 µM)
inactive: viability, T/C (second compound 0.0316 µM, first compound 0.000316 µM) 104% | viability, T/C (second compound 0.0316 µM, first compound 0.001 µM) 112% | viability, T/C [1] 105% | viability, T/C [2] 105% | viability, T/C [3] 37.1% | viability, T/C [4] 16.8% | viability, T/C (second compound 0.1 µM, first compound 0.000316 µM) 109% | viability, T/C (second compound 0.1 µM, first compound 0.001 µM) 108% | viability, T/C [7] 109% | viability, T/C [8] 100% | viability, T/C [9] 33.8% | viability, T/C [10] 18.8% | viability, T/C (second compound 0.316 µM, first compound 0.000316 µM) 105% | viability, T/C (second compound 0.316 µM, first compound 0.001 µM) 117% | viability, T/C [13] 94.2% | viability, T/C [14] 103% | viability, T/C [15] 39.3% | viability, T/C [16] 16.3% | viability, T/C (second compound 1 µM, first compound 0.000316 µM) 113% | viability, T/C (second compound 1 µM, first compound 0.001 µM) 109% | viability, T/C [19] 106% | viability, T/C [20] 106% | viability, T/C [21] 29.3% | viability, T/C [22] 15.4% | viability, T/C (second compound 3.16 µM, first compound 0.000316 µM) 120% | viability, T/C (second compound 3.16 µM, first compound 0.001 µM) 108% | viability, T/C [25] 110% | viability, T/C [26] 98.2% | viability, T/C [27] 34.5% | viability, T/C [28] 16% | viability, T/C (second compound 10 µM, first compound 0.000316 µM) 109% | viability, T/C (second compound 10 µM, first compound 0.001 µM) 106% | viability, T/C [31] 106% | viability, T/C [32] 98.9% | viability, T/C [33] 45.6% | viability, T/C [34] 18.7%

CCc1c2c(nc3ccc(O)cc13)-c1cc3c(c(=O)n1C2)COC(=O)[C@]3(O)CC + COC1C(OC(N)=O)C(O)C(Oc2ccc3c(O)c(NC(=O)c4ccc(O)c(CC=C(C)C)c4)c(=O)oc3c2C)OC1(C)C
active: viability, T/C [3] 4.37% | viability, T/C [4] 3.1% | viability, T/C [5] 2.06% | viability, T/C [6] 1.39% | viability, T/C [9] 5.1% | viability, T/C [10] 2.75% | viability, T/C [11] 2% | viability, T/C [12] 1.2% | viability, T/C [15] 4.66% | viability, T/C [16] 2.52% | viability, T/C [17] 6.96% | viability, T/C [18] 2.86% | viability, T/C [21] 4.67% | viability, T/C [22] 2.88% | viability, T/C [23] 2.98% | viability, T/C [24] 1.68% | viability, T/C [27] 6.11% | viability, T/C [28] 3.15% | viability, T/C [29] 2.62% | viability, T/C [30] 1.16% | viability, T/C [33] 4.86% | viability, T/C [34] 3.88% | viability, T/C [35] 2.05% | viability, T/C [36] 1.75%
inactive: viability, T/C [1] 28.4% | viability, T/C [2] 11.8% | viability, T/C [7] 30% | viability, T/C [8] 13.9% | viability, T/C [13] 28.4% | viability, T/C [14] 12% | viability, T/C [19] 30.1% | viability, T/C [20] 13.1% | viability, T/C [25] 24.4% | viability, T/C [26] 14.4% | viability, T/C [31] 32% | viability, T/C [32] 12.5%
< 3.16 nM: IC50 (second compound 0.0316 µM) | IC50 (second compound 0.1 µM) | IC50 (second compound 0.316 µM) | IC50 (second compound 1 µM) | IC50 (second compound 3.16 µM) | IC50 (second compound 10 µM)

CNCc1ccc(-c2[nH]c3cc(F)cc4c3c2CCNC4=O)cc1 + COC1C(OC(N)=O)C(O)C(Oc2ccc3c(O)c(NC(=O)c4ccc(O)c(CC=C(C)C)c4)c(=O)oc3c2C)OC1(C)C
> 10000 nM: IC50 (second compound 0.0316 µM) | IC50 (second compound 0.1 µM) | IC50 (second compound 0.316 µM) | IC50 (second compound 1 µM) | IC50 (second compound 3.16 µM) | IC50 (second compound 10 µM)
inactive: viability, T/C [3] 101% | viability, T/C [4] 103% | viability, T/C [5] 96.6% | viability, T/C [6] 107% | viability, T/C (second compound 0.0316 µM, first compound 3.16 µM) 111% | viability, T/C (second compound 0.0316 µM, first compound 10 µM) 103% | viability, T/C [9] 103% | viability, T/C [10] 101% | viability, T/C [11] 101% | viability, T/C [12] 109% | viability, T/C (second compound 0.1 µM, first compound 3.16 µM) 104% | viability, T/C (second compound 0.1 µM, first compound 10 µM) 96.5% | viability, T/C [15] 107% | viability, T/C [16] 102% | viability, T/C [17] 106% | viability, T/C [18] 106% | viability, T/C (second compound 0.316 µM, first compound 3.16 µM) 104% | viability, T/C (second compound 0.316 µM, first compound 10 µM) 103% | viability, T/C [21] 114% | viability, T/C [22] 99.8% | viability, T/C [23] 101% | viability, T/C [24] 107% | viability, T/C (second compound 1 µM, first compound 3.16 µM) 106% | viability, T/C (second compound 1 µM, first compound 10 µM) 104% | viability, T/C [27] 102% | viability, T/C [28] 106% | viability, T/C [29] 100% | viability, T/C [30] 110% | viability, T/C (second compound 3.16 µM, first compound 3.16 µM) 108% | viability, T/C (second compound 3.16 µM, first compound 10 µM) 101% | viability, T/C [33] 106% | viability, T/C [34] 102% | viability, T/C [35] 106% | viability, T/C [36] 108% | viability, T/C (second compound 10 µM, first compound 3.16 µM) 105% | viability, T/C (second compound 10 µM, first compound 10 µM) 101%
